Measured values from PubChem BioAssay AID220 (DTP/NCI, 2004).
Values joined by “and” are separate entries in the source; they are usually repeats but may differ in a detail not shown here. Identical values can stand only once. Results filed as inconclusive are left out.

System: CD8F1 mice, subcutaneous mammary adenocarcinoma, T/C%
Assay: NCI In Vivo Anticancer Drug Screen. Data for tumor model Mammary Adenocarcinoma CD8F1 (subcutaneous) in CD8F1
Settings: higher = larger tumour
Method in brief: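 Ratio of treated to vehicle-control outcome, based on either survival or tumor size, in mice bearing transplantable tumors given the test compound.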

[1] = endpoint: median tumor weight change, dose: 62.5 mg/kg/injection, schedule: Q01DX001 (ip), vehicle: Klucel (hydroxypropylcellulose) (HPC)
[2] = endpoint: median tumor weight change, dose: 125.0 mg/kg/injection, schedule: Q01DX001 (ip), vehicle: Klucel (hydroxypropylcellulose) (HPC)
[3] = endpoint: median tumor weight change, dose: 250.0 mg/kg/injection, schedule: Q01DX001 (ip), vehicle: Klucel (hydroxypropylcellulose) (HPC)

## N=C(N)SCc1c2ccccc2c(CSC(=N)N)c2ccccc12
endpoint: median tumor weight (est.), dose: 50.0 mg/kg/injection, schedule: Q07DX005 (ip), vehicle: saline
  T/C: 105 % of control and 119 % of control
endpoint: median tumor weight (est.), dose: 100.0 mg/kg/injection, schedule: Q07DX005 (ip), vehicle: saline
  T/C: 107 % of control
endpoint: median tumor weight (est.), dose: 200.0 mg/kg/injection, schedule: Q07DX005 (ip), vehicle: saline
  T/C: 25 % of control
endpoint: median tumor weight change, dose: 50.0 mg/kg/injection, schedule: Q01DX001 (ip), vehicle: saline + alcohol
  T/C: 77 % of control
endpoint: median tumor weight change, dose: 50.0 mg/kg/injection, schedule: Q01DX001 (ip), vehicle: suspension in saline
  T/C: 90 % of control
endpoint: median tumor weight change, dose: 100.0 mg/kg/injection, schedule: Q01DX001 (ip), vehicle: saline + alcohol
  T/C: 99 % of control
endpoint: median tumor weight change, dose: 100.0 mg/kg/injection, schedule: Q01DX001 (ip), vehicle: suspension in saline
  T/C: 102 % of control and 111 % of control
endpoint: median tumor weight change, dose: 200.0 mg/kg/injection, schedule: Q01DX001 (ip), vehicle: saline + alcohol
  T/C: 58 % of control
endpoint: median tumor weight change, dose: 200.0 mg/kg/injection, schedule: Q01DX001 (ip), vehicle: suspension in saline
  T/C: 84 % of control and 86 % of control
endpoint: median tumor weight change, dose: 400.0 mg/kg/injection, schedule: Q01DX001 (ip), vehicle: saline + alcohol
  T/C: 31 % of control

## Cc1cc(N/N=C/c2ccccn2)nc2ccccc12
endpoint: median tumor weight change, dose: 31.25 mg/kg/injection, schedule: Q01DX001 (ip), vehicle: Klucel (hydroxypropylcellulose) (HPC)
  T/C: 92 % of control
[1]
  T/C: 100 % of control
[2]
  T/C: 96 % of control
[3]
  T/C: 59 % of control

## CSCS(=O)C[C@H](CO)NC(=O)/C=C/c1c(C)[nH]c(=O)[nH]c1=O (stereo partly specified)
endpoint: median tumor weight (est.), dose: 0.12 mg/kg/injection, schedule: Q07DX005 (ip), vehicle: saline
  T/C: 100 % of control
endpoint: median tumor weight (est.), dose: 0.25 mg/kg/injection, schedule: Q07DX005 (ip), vehicle: saline
  T/C: 76 % of control
endpoint: median tumor weight (est.), dose: 0.5 mg/kg/injection, schedule: Q07DX005 (ip), vehicle: saline
  T/C: 50 % of control
endpoint: median tumor weight (est.), dose: 4.0 mg/kg/injection, schedule: Q07DX005 (ip), vehicle: saline
  T/C: 10 % of control

## CS(=O)(=O)OCCN(CCOS(C)(=O)=O)c1ccc(C=O)cc1
endpoint: median tumor weight (est.), dose: 6.25 mg/kg/injection, schedule: Q07DX005 (ip), vehicle: saline with Tween-80
  T/C: 62 % of control
endpoint: median tumor weight (est.), dose: 12.5 mg/kg/injection, schedule: Q07DX005 (ip), vehicle: saline with Tween-80
  T/C: 62 % of control and 83 % of control
endpoint: median tumor weight (est.), dose: 25.0 mg/kg/injection, schedule: Q07DX005 (ip), vehicle: saline with Tween-80
  T/C: 35 % of control
endpoint: median tumor weight (est.), dose: 200.0 mg/kg/injection, schedule: Q07DX005 (ip), vehicle: saline with Tween-80
  T/C: 85 % of control

## CCCCCNc1ncnc2c(C)[nH]nc12
[1]
  T/C: 101 % of control
[2]
  T/C: 89 % of control
[3]
  T/C: 71 % of control

## CN(N=O)C(=O)N[C@@H](C=O)[C@@H](O)[C@H](O)[C@H](O)CO
endpoint: median tumor weight (est.), dose: 16.0 mg/kg/injection, schedule: Q07DX005 (ip), vehicle: Klucel (hydroxypropylcellulose) (HPC)
  T/C: 90 % of control
endpoint: median tumor weight (est.), dose: 16.0 mg/kg/injection, schedule: Q07DX005 (ip), vehicle: other
  T/C: 101 % of control and 109 % of control
endpoint: median tumor weight (est.), dose: 32.0 mg/kg/injection, schedule: Q07DX005 (ip), vehicle: Klucel (hydroxypropylcellulose) (HPC)
  T/C: 98 % of control
endpoint: median tumor weight (est.), dose: 50.0 mg/kg/injection, schedule: Q07DX005 (ip), vehicle: citric acid
  T/C: 98 % of control
endpoint: median tumor weight (est.), dose: 64.0 mg/kg/injection, schedule: Q07DX005 (ip), vehicle: Klucel (hydroxypropylcellulose) (HPC)
  T/C: 95 % of control
endpoint: median tumor weight (est.), dose: 64.0 mg/kg/injection, schedule: Q07DX005 (ip), vehicle: other
  T/C: 115 % of control
endpoint: median tumor weight (est.), dose: 100.0 mg/kg/injection, schedule: Q07DX005 (ip), vehicle: citric acid
  T/C: 76 % of control
endpoint: median tumor weight (est.), dose: 128.0 mg/kg/injection, schedule: Q07DX005 (ip), vehicle: other
  T/C: 87 % of control
endpoint: median tumor weight (est.), dose: 200.0 mg/kg/injection, schedule: Q07DX005 (ip), vehicle: citric acid
  T/C: 84 % of control
endpoint: median tumor weight (est.), dose: 256.0 mg/kg/injection, schedule: Q07DX005 (ip), vehicle: other
  T/C: 39 % of control
endpoint: median tumor weight (est.), dose: 400.0 mg/kg/injection, schedule: Q07DX005 (ip), vehicle: citric acid
  T/C: 48 % of control

## CC(C)[C@](O)(C(=O)OCC1=CC[N+]2([O-])CC[C@@H](O)[C@@H]12)[C@H](C)O (stereo partly specified)
endpoint: median tumor weight (est.), dose: 25.0 mg/kg/injection, schedule: Q07DX005 (ip), vehicle: water
  T/C: 81 % of control
endpoint: median tumor weight (est.), dose: 50.0 mg/kg/injection, schedule: Q07DX005 (ip), vehicle: water
  T/C: 67 % of control
endpoint: median tumor weight (est.), dose: 100.0 mg/kg/injection, schedule: Q07DX005 (ip), vehicle: water
  T/C: 42 % of control
endpoint: median tumor weight (est.), dose: 200.0 mg/kg/injection, schedule: Q07DX005 (ip), vehicle: water
  T/C: 79 % of control
endpoint: median tumor weight (est.), dose: 400.0 mg/kg/injection, schedule: Q07DX005 (ip), vehicle: water
  T/C: 59 % of control
